Reference: patent publication US6914045B2, “Glycopeptide antibiotics” (Wyeth Holdings Corporation, priority 2001, dated 2005)
Values after ≈ are worked out from the molar mass of the structure shown.

Legend:
Enterococcus sp. = assay: in vitro antibacterial evaluation, MIC by broth dilution; assay type: cell-based; settings: broth dilution, 18 hours at 35° C.
How it was run: (§1)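 MIC, the lowest antibiotic concentration preventing growth, was read across 64-0.06 μg/mL with 5×10^5 CFU/mL inoculum. Method followed NCCLS M7-A2 broth dilution using Mueller-Hinton II; Gram-positive strains covered recent methicillin-, penicillin- and/or vancomycin-resistant clinical isolates.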

Staphylococcus sp. = assay: as above; assay type: cell-based; settings: broth dilution, 18 hours at 35° C.
How it was run: as §1

Streptococcus sp. = assay: as above; assay type: cell-based; settings: broth dilution, 18 hours at 35° C.
How it was run: as §1

[1] = tested on: Staphylococcus aureus-SMITH (GC 4543); assay: acute lethal infection in mice; assay type: in vivo; settings: acute lethal infection, female CD-1 mice, intraperitoneal challenge, intravenous 30 min. after infection, 7 day survival
How it was run: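 ED50 from 7 day survival ratios pooled over 3 separate tests. Female CD-1 mice, 20+/−2 gm, ip bacterial challenge (trypticase soy broth or hog gastric mucin) lethal to untreated controls in 24-48 hr; iv dosing 30 min after infection in saline or 5% dextrose, n=5/dose.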

[2] = anatomic pathology (histopathology of heart and kidney) in mice; assay type: in vivo; settings: CD-1 mice, 20 mg/kg intravenously daily for 9 days, necropsy day 10, microscopic histopathology
Experimental: Samples of tissues from necropsied mice were formalin-fixed, paraffin-embedded, sectioned, stained with hematoxylin and eosin, and examined microscopically. Histopathologic findings were recorded. These findings were subjectively graded on a scale corresponding to slight, mild, moderate, marked and severe as compared to untreated controls.

Escherichia coli = assay: in vitro antibacterial evaluation, MIC by broth dilution; assay type: cell-based; settings: 18 hours at 35° C.
How it was run: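 MIC is the lowest antibiotic concentration (tested 64-0.06 μg/mL) preventing growth of a 5×10^5 CFU/mL inoculum. Determined by broth dilution in Mueller-Hinton II medium following NCCLS standard M7-A2.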

For `CC(c1ccccc1)C1NC(=O)CNC(=O)C(CO)NC(=O)C(C(O)C2CN(Cc3ccc4ccccc4c3)C(=N)N2C2OC(CO)C(O)C(O)C2O)NC(=O)C(C(O)C2CNC(=N)N2)NC(=O)C(Cc2ccc(OC3OC(CO)C(OC4OC5COC6(OC5C(O)C4O)C4CC5CC(C4)CC6C5)C(O)C3O)cc2)NC1=O` (stereo not drawn) [Example 78, Cyclo[glycyl-β-methylphenylalanyl-O-[4-O-[4,6-O-(2-adamantylidene)hexopyranosyl]hexopyranosyl]tyrosyl-3-(2-iminoimidazolidin-4-yl)seryl-3-[3-hexopyranosyl-2-imino-1-(2-naphthylmethyl)-imidazolidin-4-yl]serylseryl]], which “MIC Enterococcus avium (GC 4558)” value (Enterococcus sp.; Enterococcus avium (GC 4558)) is on record?
Its value is 4 µg/mL (≈ 2.55 µM).

And the “MIC Enterococcus faecalis (ATCC 29212)” value (Enterococcus sp.; Enterococcus faecalis (ATCC 29212))?
The value was 8 µg/mL (≈ 5.1 µM).

And the “MIC Enterococcus faecalis (GC 4552)” value (Enterococcus sp.; Enterococcus faecalis (GC 4552))?
The value was 8 µg/mL (≈ 5.1 µM).

And the “MIC Enterococcus faecalis (GC 4553)” value (Enterococcus sp.; Enterococcus faecalis (GC 4553))?
Its value is 8 µg/mL (≈ 5.1 µM).

And the “MIC Enterococcus faecalis (GC 4554)” value (Enterococcus sp.; Enterococcus faecalis (GC 4554))?
The value was 16 µg/mL (≈ 10.2 µM).

And the “MIC Enterococcus faecalis (GC 6189)” value (Enterococcus sp.; Enterococcus faecalis (GC 6189))?
The value was 16 µg/mL (≈ 10.2 µM).

And the “MIC Enterococcus faecium (GC 2243)” value (Enterococcus sp.; Enterococcus faecium (GC 2243))?
Its value is 8 µg/mL (≈ 5.1 µM).

And the “MIC Enterococcus faecium (GC 4556)” value (Enterococcus sp.; Enterococcus faecium (GC 4556))?
The value was 16 µg/mL (≈ 10.2 µM).

What about the “MIC Enterococcus faecium (GC 4557)” value (Enterococcus sp.; Enterococcus faecium (GC 4557)) of the same compound?
Its value is 2 µg/mL (≈ 1.28 µM).

And the “MIC Enterococcus avium (GC 4558)” value (Enterococcus sp.)?
Its value is 4 µg/mL (≈ 2.55 µM).

What about the “MIC Enterococcus faecalis (ATCC 29212)” value (Enterococcus sp.) of the same compound?
Its value is 8 µg/mL (≈ 5.1 µM).

And the “MIC Enterococcus faecalis (GC 2242)” value (Enterococcus sp.)?
The value was 16 µg/mL (≈ 10.2 µM).

And the “MIC Enterococcus faecalis (GC 2691)” value (Enterococcus sp.)?
The value was 16 µg/mL (≈ 10.2 µM).

And the “MIC Enterococcus faecalis (GC 3059)” value (Enterococcus sp.)?
Its value is 16 µg/mL (≈ 10.2 µM).

What about the “MIC Enterococcus faecalis (GC 4552)” value (Enterococcus sp.) of the same compound?
Its value is 8 µg/mL (≈ 5.1 µM).

What about the “MIC Enterococcus faecalis (GC 4553)” value (Enterococcus sp.) of the same compound?
Its value is 8 µg/mL (≈ 5.1 µM).

What about the “MIC Enterococcus faecalis (GC 4554)” value (Enterococcus sp.) of the same compound?
Its value is 16 µg/mL (≈ 10.2 µM).

And the “MIC Enterococcus faecalis (GC 6189)” value (Enterococcus sp.)?
The value was 16 µg/mL (≈ 10.2 µM).

And the “MIC Enterococcus faecium (GC 2243)” value (Enterococcus sp.)?
Its value is 8 µg/mL (≈ 5.1 µM).

What about the “MIC Enterococcus faecium (GC 4556)” value (Enterococcus sp.) of the same compound?
Its value is 16 µg/mL (≈ 10.2 µM).

And the “MIC Enterococcus faecium (GC 4557)” value (Enterococcus sp.)?
The value was 2 µg/mL (≈ 1.28 µM).

What about the “MIC Enterococcus faecalis (GC 2242)” value (Enterococcus sp.; strain GC 2242) of the same compound?
The value was 16 µg/mL (≈ 10.2 µM).

And the “MIC Enterococcus faecalis (GC 2691)” value (Enterococcus sp.; strain GC 2691)?
Its value is 16 µg/mL (≈ 10.2 µM).

What about the “MIC Enterococcus faecalis (GC 3059)” value (Enterococcus sp.; strain GC 3059) of the same compound?
Its value is 16 µg/mL (≈ 10.2 µM).

And the “MIC Staphylococcus aureus (ATCC 29213)” value (Staphylococcus sp.; strain ATCC 29213)?
The value was 8 µg/mL (≈ 5.1 µM).

What about the “MIC Staphylococcus aureus (GC 1131)” value (Staphylococcus sp.; strain GC 1131) of the same compound?
Its value is 8 µg/mL (≈ 5.1 µM).

And the “MIC Staphylococcus aureus (GC 3051)” value (Staphylococcus sp.; strain GC 3051)?
The value was 8 µg/mL (≈ 5.1 µM).

What about the “MIC Staphylococcus aureus (GC 3053)” value (Staphylococcus sp.; strain GC 3053) of the same compound?
Its value is 8 µg/mL (≈ 5.1 µM).

And the “MIC Staphylococcus aureus (GC 4541)” value (Staphylococcus sp.; strain GC 4541)?
Its value is 4 µg/mL (≈ 2.55 µM).

And the “MIC Staphylococcus aureus (GC 4542)” value (Staphylococcus sp.; strain GC 4542)?
Its value is 8 µg/mL (≈ 5.1 µM).

And the “MIC Staphylococcus aureus-SMITH (GC 4543)” value (Staphylococcus sp.; strain GC 4543)?
Its value is 4 µg/mL (≈ 2.55 µM).

What about the “MIC Staphylococcus aureus (GC 4544)” value (Staphylococcus sp.; strain GC 4544) of the same compound?
Its value is 8 µg/mL (≈ 5.1 µM).

What about the “MIC Staphylococcus aureus (GC 4545)” value (Staphylococcus sp.; strain GC 4545) of the same compound?
Its value is 8 µg/mL (≈ 5.1 µM).

And the “MIC Staphylococcus haemolyticus (GC 4546)” value (Staphylococcus sp.; strain GC 4546)?
Its value is 4 µg/mL (≈ 2.55 µM).

What about the “MIC Coagulase Negative Staphylococcus (GC 4547)” value (Staphylococcus sp.; strain GC 4547) of the same compound?
Its value is 4 µg/mL (≈ 2.55 µM).

What about the “MIC Coagulase Negative Staphylococcus (GC 4548)” value (Staphylococcus sp.; strain GC 4548) of the same compound?
The value was 4 µg/mL (≈ 2.55 µM).

And the “MIC Coagulase Negative Staphylococcus (GC 4549)” value (Staphylococcus sp.; strain GC 4549)?
Its value is 8 µg/mL (≈ 5.1 µM).

What about the “MIC Coagulase Negative Staphylococcus (GC 4551)” value (Staphylococcus sp.; strain GC 4551) of the same compound?
Its value is 8 µg/mL (≈ 5.1 µM).

What about the “MIC Coagulase Negative Staphylococcus (GC 6257)” value (Staphylococcus sp.; strain GC 6257) of the same compound?
Its value is 2 µg/mL (≈ 1.28 µM).

And the “MIC Streptococcus agalactiae (GC 4564)” value (Streptococcus sp.)?
Its value is 1 µg/mL (≈ 0.638 µM).

What about the “MIC Streptococcus pneumoniae (ATCC 6301)” value (Streptococcus sp.) of the same compound?
Its value is 1 µg/mL (≈ 0.638 µM).

What about the “MIC Streptococcus pneumoniae (GC 1894)” value (Streptococcus sp.) of the same compound?
The value was 0.25 µg/mL (≈ 0.159 µM).

What about the “MIC Streptococcus pneumoniae (GC 4565)” value (Streptococcus sp.) of the same compound?
The value was 2 µg/mL (≈ 1.28 µM).

And the “MIC Streptococcus pyogenes (GC 4563)” value (Streptococcus sp.)?
Its value is 0.5 µg/mL (≈ 0.319 µM).

And the “MIC Streptococcus pneumoniae (ATCC 6301)” value (Streptococcus sp.; strain ATCC 6301)?
The value was 1 µg/mL (≈ 0.638 µM).

What about the “MIC Streptococcus pneumoniae (GC 1894)” value (Streptococcus sp.; strain GC 1894) of the same compound?
Its value is 0.25 µg/mL (≈ 0.159 µM).

And the “MIC Streptococcus pyogenes (GC 4563)” value (Streptococcus sp.; strain GC 4563)?
Its value is 0.5 µg/mL (≈ 0.319 µM).

What about the “MIC Streptococcus agalactiae (GC 4564)” value (Streptococcus sp.; strain GC 4564) of the same compound?
The value was 1 µg/mL (≈ 0.638 µM).

And the “MIC Streptococcus pneumoniae (GC 4565)” value (Streptococcus sp.; strain GC 4565)?
Its value is 2 µg/mL (≈ 1.28 µM).

And the median effective dose (ED50), Staphylococcus aureus-SMITH (GC 4543) [1]?
The median effective dose (ED50), Staphylococcus aureus-SMITH (GC 4543) was 2 mg/kg.

And the “Anatomical Pathology (Day 10), Heart” value [2]?
The value was 0.

What about the “Anatomical Pathology (Day 10), Kidney” value [2] of the same compound?
The value was “++”.

And the “MIC Escherichia coli (ATCC 25922)” value (Escherichia coli)?
Its value is 128 µg/mL (≈ 81.6 µM).

What about the “MIC Escherichia coli (GC 4559)” value (Escherichia coli) of the same compound?
The value was 128 µg/mL (≈ 81.6 µM).

What about the “MIC Escherichia coli (GC 4560)” value (Escherichia coli) of the same compound?
The value was 4 µg/mL (≈ 2.55 µM).
